The assay relates to BDF1 mice, P388 leukemia ip, median survival T/C. In words: NCI In Vivo Anticancer Drug Screen. Data for tumor model P388 Leukemia (intraperitoneal) in B6D2F1 (BDF1) mice. The following applies: endpoint: median survival time, higher = longer survival. An outline of the steps:
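T/C = treated-group survival ÷ vehicle-control survival; tumour transplanted into mice before dosing.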

[1] abbreviates: dose: 100.0 mg/kg/injection, schedule: Q04DX003 (ip), vehicle: Klucel (hydroxypropylcellulose) (HPC).
Setting [2] is: dose: 200.0 mg/kg/injection, schedule: Q04DX003 (ip), vehicle: Klucel (hydroxypropylcellulose) (HPC).
The mark [3] stands for this setting: dose: 50.0 mg/kg/injection, schedule: Q01DX009 (ip), vehicle: saline with Tween-80.
Setting [4] is: dose: 100.0 mg/kg/injection, schedule: Q01DX009 (ip), vehicle: saline with Tween-80.
Where [5] appears, read: dose: 25.0 mg/kg/injection, schedule: Q01DX009 (ip), vehicle: saline.
Setting [6] is: dose: 50.0 mg/kg/injection, schedule: Q01DX009 (ip), vehicle: saline.
Setting [7] is: dose: 100.0 mg/kg/injection, schedule: Q01DX009 (ip), vehicle: saline.
The mark [8] stands for this setting: dose: 200.0 mg/kg/injection, schedule: Q01DX009 (ip), vehicle: saline.
Setting [9] is: dose: 100.0 mg/kg/injection, schedule: Q01DX001 (ip), vehicle: Klucel (hydroxypropylcellulose) (HPC).
[10] abbreviates: dose: 100.0 mg/kg/injection, schedule: Q01DX009 (ip), vehicle: Klucel (hydroxypropylcellulose) (HPC).
[11] abbreviates: dose: 200.0 mg/kg/injection, schedule: Q01DX001 (ip), vehicle: Klucel (hydroxypropylcellulose) (HPC).
Setting [12] is: dose: 400.0 mg/kg/injection, schedule: Q01DX001 (ip), vehicle: Klucel (hydroxypropylcellulose) (HPC).
Setting [13] is: dose: 400.0 mg/kg/injection, schedule: Q04DX003 (ip), vehicle: Klucel (hydroxypropylcellulose) (HPC).

Molecules are shown by their SMILES. Where “and” joins values, the source holds several entries; their conditions need not be identical. Equal entries are not always repeated. Inconclusive results and toxic doses are left out.

Turning to `Oc1cc(N2CC2)c(O)cc1N1CC1`, the T/C by setting is: (dose: 0.02 mg/kg/injection, schedule: Q01DX009 (ip), vehicle: saline) 150 % of control; (dose: 0.03 mg/kg/injection, schedule: Q01DX009 (ip), vehicle: saline) 154 % of control; (dose: 0.1 mg/kg/injection, schedule: Q01DX009 (ip), vehicle: saline) 171 % of control; (dose: 0.13 mg/kg/injection, schedule: Q01DX009 (ip), vehicle: saline) 200 % of control and 213 % of control; (dose: 0.2 mg/kg/injection, schedule: Q01DX009 (ip), vehicle: saline) 186 % of control and 204 % of control; (dose: 0.3 mg/kg/injection, schedule: Q01DX009 (ip), vehicle: saline) 204 % of control. The T/C is, setting by setting: (dose: 0.44 mg/kg/injection, schedule: Q01DX009 (ip), vehicle: saline) 200 % of control; (dose: 0.47 mg/kg/injection, schedule: Q04DX003 (ip), vehicle: saline) 150 % of control; (dose: 0.68 mg/kg/injection, schedule: Q01DX009 (ip), vehicle: saline) 263 % of control; (dose: 0.72 mg/kg/injection, schedule: Q04DX003 (ip), vehicle: saline) 200 % of control; (dose: 1.0 mg/kg/injection, schedule: Q01DX009 (ip), vehicle: saline) 268 % of control; (dose: 1.08 mg/kg/injection, schedule: Q04DX003 (ip), vehicle: saline) 220 % of control. In addition, the T/C is 225 % of control (dose: 1.65 mg/kg/injection, schedule: Q04DX003 (ip), vehicle: saline); 225 % of control and 150 % of control (dose: 2.5 mg/kg/injection, schedule: Q04DX003 (ip), vehicle: saline); 90 % of control (dose: 3.75 mg/kg/injection, schedule: Q04DX003 (ip), vehicle: saline); 105 % of control (dose: 16.0 micrograms/kg/injection, schedule: Q01DX009 (ip), vehicle: saline); 102 % of control (dose: 25.0 micrograms/kg/injection, schedule: Q01DX009 (ip), vehicle: saline); 190 % of control (dose: 38.0 micrograms/kg/injection, schedule: Q01DX009 (ip), vehicle: Klucel (hydroxypropylcellulose) (HPC)). For the same molecule, the T/C was 200 % of control (dose: 58.0 micrograms/kg/injection, schedule: Q01DX009 (ip), vehicle: Klucel (hydroxypropylcellulose) (HPC)); 179 % of control (dose: 88.0 micrograms/kg/injection, schedule: Q01DX009 (ip), vehicle: saline); 120 % of control (dose: 132.0 micrograms/kg/injection, schedule: Q01DX009 (ip), vehicle: saline).

With `CCCCOc1ccc(C(=O)N/N=C(\C)[C@]2(O)Cc3c(O)c4c(c(O)c3[C@@H](OC3CC(N)C(O)C(C)O3)C2)C(=O)c2c(OC)cccc2C4=O)cc1` (stereo partly drawn), the T/C is, setting by setting: (dose: 1.0 mg/kg/injection, schedule: Q01DX009 (ip), vehicle: water) 173 % of control; (dose: 2.0 mg/kg/injection, schedule: Q01DX009 (ip), vehicle: water) 157 % of control and 173 % of control; (dose: 4.0 mg/kg/injection, schedule: Q01DX009 (ip), vehicle: water) 169 % of control.

In the case of `COc1ccc(C=C2C(=O)N(C)C(=O)N(C)C2=O)cc1`, the T/C (dose: 50.0 mg/kg/injection, schedule: Q01DX009 (ip), vehicle: other) is 119 % of control.

In the case of `O=Nc1ccc(O)c(=O)cc1`, the T/C (dose: 1.0 mg/kg/injection, schedule: Q01DX009 (ip), vehicle: saline with Tween-80) is 109 % of control; the T/C (dose: 1.0 mg/kg/injection, schedule: Q04DX003 (ip), vehicle: saline) was 104 % of control; the T/C (dose: 2.0 mg/kg/injection, schedule: Q01DX009 (ip), vehicle: saline with Tween-80) was 109 % of control; the T/C (dose: 2.0 mg/kg/injection, schedule: Q04DX003 (ip), vehicle: saline) was 104 % of control; the T/C (dose: 4.0 mg/kg/injection, schedule: Q01DX009 (ip), vehicle: saline with Tween-80) was 90 % of control; the T/C (dose: 4.0 mg/kg/injection, schedule: Q04DX003 (ip), vehicle: saline) was 116 % of control.

`C/C(=C\c1ccc2c(c1)OCO2)[N+](=O)[O-]`: the T/C was 118 % of control (dose: 85.0 mg/kg/injection, schedule: Q04DX003 (ip), vehicle: Klucel (hydroxypropylcellulose) (HPC)); 110 % of control under setting [1]; 109 % of control (dose: 135.0 mg/kg/injection, schedule: Q04DX003 (ip), vehicle: Klucel (hydroxypropylcellulose) (HPC)); 100 % of control and 109 % of control under setting [2].

Turning to `CC1CCCCC1O` (stereo not drawn), the T/C runs as follows: under setting [3], 100 % of control and 109 % of control; under setting [4], 93 % of control and 109 % of control; (dose: 200.0 mg/kg/injection, schedule: Q01DX009 (ip), vehicle: saline with Tween-80) 111 % of control and 95 % of control.

As to `Nc1ccn(C2OC(CO)C(O)C2O)c(=O)c1` (stereo not drawn), the T/C by setting is: under setting [5], 93 % of control; under setting [6], 95 % of control; under setting [7], 112 % of control; under setting [8], 102 % of control.

As to `COC(OC)c1[nH]c(=S)[nH]c(=O)c1Cc1cccc(Cl)c1`, the T/C by setting is: under setting [9], 109 % of control; under setting [10], 122 % of control; under setting [1], 113 % of control; under setting [11], 104 % of control; under setting [2], 100 % of control; under setting [12], 104 % of control. The T/C (dose: 400.0 mg/kg/injection, schedule: Q01DX009 (ip), vehicle: Klucel (hydroxypropylcellulose) (HPC)) was 100 % of control and the T/C under setting [13] is 95 % of control.

In the case of `CCc1ccccc1OS(=O)(=O)c1ccc([N+](=O)[O-])cc1`, the T/C is 88 % of control (dose: 100.0 mg/kg/injection, schedule: Q01DX009 (ip), vehicle: saline sonified); 88 % of control (dose: 200.0 mg/kg/injection, schedule: Q01DX009 (ip), vehicle: saline sonified); 94 % of control (dose: 400.0 mg/kg/injection, schedule: Q01DX009 (ip), vehicle: saline sonified).

Regarding `O=C1OC(c2ccc(Cl)cc2)=N/C1=C\c1ccccc1`, the T/C by setting is: under setting [9], 95 % of control; under setting [1], 86 % of control; under setting [11], 95 % of control; under setting [2], 90 % of control; under setting [12], 100 % of control; under setting [13], 95 % of control.

Regarding `CC(C)N1CCC(=O)NC1=O`, the T/C was 104 % of control (dose: 25.0 mg/kg/injection, schedule: Q01DX001 (ip), vehicle: saline sonified); 104 % of control (dose: 50.0 mg/kg/injection, schedule: Q01DX001 (ip), vehicle: saline sonified); 100 % of control (dose: 100.0 mg/kg/injection, schedule: Q01DX001 (ip), vehicle: saline sonified).

For `COC(=O)C1C(O)CCC2CN3CCc4c([nH]c5ccccc45)C3CC21` (stereo not drawn), the T/C runs as follows: under setting [5], 88 % of control; under setting [3], 105 % of control; under setting [6], 88 % of control; under setting [4], 119 % of control; under setting [7], 110 % of control; under setting [8], 118 % of control.

For the molecule `CC1=C2CC(C)(C)/C=C\C(=O)/C(C)=C\C3=C[C@H](C)C[C@]3(O2)C1=O`, the T/C is 100 % of control (dose: 0.5 mg/kg/injection, schedule: Q01DX010 (ip), vehicle: carboxymethylcellulose (CMC)); 100 % of control (dose: 1.0 mg/kg/injection, schedule: Q01DX010 (ip), vehicle: carboxymethylcellulose (CMC)); 100 % of control (dose: 2.0 mg/kg/injection, schedule: Q01DX010 (ip), vehicle: carboxymethylcellulose (CMC)); 104 % of control (dose: 4.0 mg/kg/injection, schedule: Q01DX010 (ip), vehicle: carboxymethylcellulose (CMC)); 95 % of control (dose: 8.0 mg/kg/injection, schedule: Q01DX010 (ip), vehicle: carboxymethylcellulose (CMC)).

In the case of `CC1(C)CC2C(=O)c3ccccc3NC2c2ccccc21` (stereo not drawn), the T/C was 87 % of control under setting [10]; 112 % of control under setting [1]; 108 % of control (dose: 200.0 mg/kg/injection, schedule: Q01DX009 (ip), vehicle: Klucel (hydroxypropylcellulose) (HPC)); 104 % of control under setting [2]; 108 % of control under setting [13].

The record behind these values is PubChem BioAssay AID328 (DTP/NCI, 2004).
